System: Rattus norvegicus
Conditions: short-term, duration: 28 days, oral, gavage, Sprague-Dawley

O=C(O)C(F)(F)C(F)(F)C(F)(F)C(F)(F)C(F)(F)C(F)(F)C(F)(F)C(F)(F)F [Perfluorononanoic acid]
LOEL (F, Organ weights_Liver - Absolute): 1.56 mg/kg-day
LOEL (F, Organ weights_Liver - Relative): 1.56 mg/kg-day
NOEL (F, Organ weights_R. adrenal gland - Absolute): 25 mg/kg-day
NOEL (F, Organ weights_R. adrenal gland - Relative): 25 mg/kg-day
LOEL (F, Organ weights_R. kidney - Absolute): 1.56 mg/kg-day
LOEL (F, Organ weights_R. kidney - Relative): 1.56 mg/kg-day
LOEL (F, Organ weights_Spleen - Absolute): 3.12 mg/kg-day
LOEL (F, Organ weights_Spleen - Relative): 6.25 mg/kg-day
NOEL (F, Organ weights_Thymus - Absolute): 25 mg/kg-day
NOEL (F, Organ weights_Thymus - Relative): 25 mg/kg-day
NOEL (F, Organ weights_Thyroid gland - Absolute): 25 mg/kg-day
NOEL (F, Organ weights_Thyroid gland - Relative): 25 mg/kg-day
LOEL (F, body weight): 6.25 mg/kg-day
LOEL (M, Clinical chemistry_Alanine aminotransferase): 1.25 mg/kg-day
LOEL (M, Clinical chemistry_Albumin): 1.25 mg/kg-day
LOEL (M, Clinical chemistry_Albumin/globulin ratio): 0.625 mg/kg-day
LOEL (M, Clinical chemistry_Alkaline phosphatase): 1.25 mg/kg-day
LOEL (M, Clinical chemistry_Aspartate aminotransferase): 1.25 mg/kg-day
LOEL (M, Clinical chemistry_Cholesterol): 0.625 mg/kg-day
NOEL (M, Clinical chemistry_Creatinine kinase): 10 mg/kg-day
LOEL (M, Clinical chemistry_Direct bilirubin): 1.25 mg/kg-day
LOEL (M, Clinical chemistry_Free thyroxine): 0.625 mg/kg-day
LOEL (M, Clinical chemistry_Globulin): 0.625 mg/kg-day
LOEL (M, Clinical chemistry_Indirect bilirubin): 1.25 mg/kg-day
LOEL (M, Clinical chemistry_Sorbitol dehydrogenase): 1.25 mg/kg-day
LOEL (M, Clinical chemistry_Testosterone): 2.5 mg/kg-day
LOEL (M, Clinical chemistry_Thyroid stimulating hormone): 2.5 mg/kg-day
LOEL (M, Clinical chemistry_Total bile acids): 0.625 mg/kg-day
LOEL (M, Clinical chemistry_Total bilirubin): 1.25 mg/kg-day
LOEL (M, Clinical chemistry_Total protein): 0.625 mg/kg-day
LOEL (M, Clinical chemistry_Total thyroxine): 0.625 mg/kg-day
LOEL (M, Clinical chemistry_Total triiodothyronine): 2.5 mg/kg-day
LOEL (M, Clinical chemistry_Triglycerides): 0.625 mg/kg-day
LOEL (M, Gene expression_Acox1): 0.625 mg/kg-day
LOEL (M, Gene expression_Acyl-CoA oxidase): 0.625 mg/kg-day
LOEL (M, Gene expression_Cyp2b1): 0.625 mg/kg-day
LOEL (M, Gene expression_Cyp2b2): 0.625 mg/kg-day
LOEL (M, Gene expression_Cyp4a1): 0.625 mg/kg-day
NOEL (M, Hematology_Erythrocytes): 10 mg/kg-day
NOEL (M, Hematology_Hematocrit): 10 mg/kg-day
NOEL (M, Hematology_Hemoglobin): 10 mg/kg-day
LOEL (M, Hematology_Mean corpuscular hemoglobin concentration): 2.5 mg/kg-day
LOEL (M, Hematology_Mean corpuscular volume): 2.5 mg/kg-day
NOEL (M, Hematology_Platelets): 10 mg/kg-day
LOEL (M, Hematology_Reticulocytes): 0.625 mg/kg-day
LOEL (M, Nonneoplastic effects_Bone marrow - Hypocellularity): 2.5 mg/kg-day
LOEL (M, Nonneoplastic effects_Epididymis - Duct, exfoliated germ cell): 2.5 mg/kg-day
LOEL (M, Nonneoplastic effects_Epididymis - Epithelium, apoptosis): 5 mg/kg-day
LOEL (M, Nonneoplastic effects_Epididymis - Hypospermia): 5 mg/kg-day
LOEL (M, Nonneoplastic effects_Forestomach - Epithelium, hyperplasia): 2.5 mg/kg-day
LOEL (M, Nonneoplastic effects_Forestomach - Inflammation, chronic active): 2.5 mg/kg-day
NOEL (M, Nonneoplastic effects_Kidney - Nephropathy, chronic progressive): 10 mg/kg-day
LOEL (M, Nonneoplastic effects_Liver - Hepatocyte, Necrosis): 2.5 mg/kg-day
LOEL (M, Nonneoplastic effects_Liver - Hepatocyte, cytoplasmic alteration): 0.625 mg/kg-day
LOEL (M, Nonneoplastic effects_Liver - Hepatocyte, hypertrophy): 0.625 mg/kg-day
LOEL (M, Nonneoplastic effects_Liver - Hepatocyte, vacuolization cytoplasmic): 1.25 mg/kg-day
LOEL (M, Nonneoplastic effects_Lymph nodes - Mandibular, atrophy): 5 mg/kg-day
LOEL (M, Nonneoplastic effects_Lymph nodes - Mesenteric, atrophy): 5 mg/kg-day
NOEL (M, Nonneoplastic effects_Nose - Olfactory epithelium, degeneration): 10 mg/kg-day
NOEL (M, Nonneoplastic effects_Nose - Olfactory epithelium, hyperplasia): 10 mg/kg-day
NOEL (M, Nonneoplastic effects_Nose - Olfactory epithelium, inflammation, suppurative): 10 mg/kg-day
NOEL (M, Nonneoplastic effects_Nose - Respiratory epithelium, hyperplasia): 10 mg/kg-day
NOEL (M, Nonneoplastic effects_Nose - Respiratory epithelium, inflammation, chronic active): 10 mg/kg-day
LOEL (M, Nonneoplastic effects_Spleen - Atrophy): 5 mg/kg-day
NOEL (M, Nonneoplastic effects_Spleen - Extramedullary hematopoiesis, increased): 10 mg/kg-day
LOEL (M, Nonneoplastic effects_Testes - Germinal epithelium, degeneration): 2.5 mg/kg-day
LOEL (M, Nonneoplastic effects_Testes - Interstitial cell, atrophy): 2.5 mg/kg-day
LOEL (M, Nonneoplastic effects_Testes - Seminiferous tubule, spermatid retention): 2.5 mg/kg-day
LOEL (M, Nonneoplastic effects_Thymus - Atrophy): 2.5 mg/kg-day
NOEL (M, Nonneoplastic effects_Thymus - Lymphocyte, apoptosis): 10 mg/kg-day
NOEL (M, Nonneoplastic effects_Thyroid gland - Follicular cell hypertrophy): 10 mg/kg-day
LOEL (M, Organ weights_Liver - Absolute): 0.625 mg/kg-day
LOEL (M, Organ weights_Liver - Relative): 0.625 mg/kg-day
LOEL (M, Organ weights_R. adrenal gland - Absolute): 0.625 mg/kg-day
LOEL (M, Organ weights_R. adrenal gland - Relative): 2.5 mg/kg-day
LOEL (M, Organ weights_R. kidney - Absolute): 2.5 mg/kg-day
LOEL (M, Organ weights_R. kidney - Relative): 0.625 mg/kg-day
LOEL (M, Organ weights_R. testis - Absolute): 2.5 mg/kg-day
LOEL (M, Organ weights_Spleen - Absolute): 1.25 mg/kg-day
LOEL (M, Organ weights_Spleen - Relative): 1.25 mg/kg-day
LOEL (M, Organ weights_Thymus - Absolute): 1.25 mg/kg-day
LOEL (M, Organ weights_Thymus - Relative): 1.25 mg/kg-day
LOEL (M, Organ weights_Thyroid gland - Absolute): 2.5 mg/kg-day
LOEL (M, Organ weights_Thyroid gland - Relative): 2.5 mg/kg-day
LOEL (M, Reproductive toxicity_Altered sperm parameters): 1.25 mg/kg-day
LOEL (M, body weight): 1.25 mg/kg-day
